{
  "source": "paper PMC9516332",
  "about": "(Frontiers in Oncology, 2022)",
  "key": {"[1]": {"tested_on": "AP-1060 (ETV6-NTRK3)", "assay": "Cell viability assay", "conditions": "read-out: IC50 in cell proliferation assay"}, "[2]": {"tested_on": "134 cancer cell lines", "assay": "Cell viability assay (ATPlite, 72 hours), IC50 on cancer cell line panel", "conditions": "134 cell line panel"}},
  "data": [
    {"smiles": "C=CC(=O)Nc1cc(Nc2nccc(-c3cn(C)c4ccccc34)n2)c(OC)cc1N(C)CCN(C)C", "note": "[osimertinib]", "values": [
      {"measurement": "IC50", "setting": "[1]", "result": 1940, "unit": "nM"},
      {"measurement": "lower IC50 of the most sensitive cell line compared to the panel average", "setting": "[2]", "result": "around 300 fold"}
    ]}
  ]
}
